From patent publication US8574831B2, “Mutational profiles in HIV-1 reverse transcriptase correlated with phenotypic drug resistance” (Virco N.V., priority 2000, dated 2013)

Tested on: HIV with mutations in the HIV protease sequence
Experiment: Phenotypic fold resistance to protease inhibitors, protease mutations 84A/84L/84C/54M/54L/54V in a background (Examples 8-13)
Assay type: cell-based, HIV-1
Protocol: As is the case with the genotyping assays, the recombinant virus assay starts with the amplification of viral target sequences by means of PCR. The amplicons are incorporated into a proviral laboratory clone with sequences homologous to those present in the amplicon deleted. This generates a stock of chimeric viruses. The viruses are tested for their ability to grow in the presence of different concentrations of drugs. Results are obtained by calculating IC50 values for each inhibitor and by reporting the results as IC50 values, expressed in μM concentrations, or by computing the ratio of the IC50 values found for the chimeric virus to the IC50 values found for a wild type susceptible laboratory virus tested in parallel. In the latter case, resistance is expressed as “fold-resistance” compared to a wild-type susceptible HIV-1 strain. In order to meet the need for high-volume testing and a short turn-around time for an individual test, the latest generation of phenotyping assays has undergone further modifications. The use of reporter gene systems for susceptibility testing allows the implementation of laboratory automation and standardization. See Pauwels, et al., J. Virol. Methods 20, 309-321 (1998); Paulous, S., et al., International Workshop on HIV Drug Resistance, Treatment Strategies and Eradication, St. Petersburg, Fla., USA. Abstr. 46 (1997); and Deeks, S. G., et al., 2nd International Workshop on HIV Drug Resistance and Treatment Strategies, Lake Maggiore, Italy. Abstr. 53 (1998).
The ANTIVIROGRAM® assay (Virco) (WO 97/27480) is based on homologous recombination of patient derived HIV-1 gag/PR/RT sequences into a proviral HIV-1 clone correspondingly deleted for the gag/PR/RT sequences. See Pauwels, et al., J. Virol. Methods 20, 309-321 (1998). A similar assay (Phenosense ViroLogic) is based on enzymatic ligation of patient-derived PR/RT sequences into a correspondingly deleted proviral vector carrying an indicator gene, luciferase, inserted in the deleted HIV-1 envelope gene. See Deeks, S. G., et al., 2nd International Workshop on HIV Drug Resistance and Treatment Strategies, Lake Maggiore, Italy. Abstr. 53 (1998). Hertogs et al. Antimicrob. Agents Chemother. 44(3) 568-573 (2000) the disclosures of which are herein incorporated by reference.
The methods of monitoring HIV-1 drug resistance, may also be used in combination with phenotypic drug resistance testing of viral isolates. For example, in one embodiment, a phenotypic test is utilized that is based upon the construction of chimeric HIV-1 strains composed of the protease (PR) and reverse transcriptase (RT) gene sequences which are isolated and amplified from the patient viral RNA. These strains may subsequently be recombined inside CD4+ T cells with a standard laboratory isogenic (HXB2) HIV-1 DNA construct from which the PR/RT gene sequences were deleted. The recombinant strains may then be grown in the presence of the above-mentioned antiviral drugs and the susceptibility of the viral isolates may be expressed as fold-change value of the IC50 of the drug on the patient isolates over the IC50 of the drug on a wild-type laboratory reference strain.

CC(C)CN(C[C@@H](O)[C@H](Cc1ccccc1)NC(=O)O[C@H]1CCOC1)S(=O)(=O)c1ccc(N)cc1 [Amprenavir, amprenavir]
Fold change in IC50 (Table 12, V055199, genotype 10I + 33F + 54M + 90M): 38.7 fold | Fold change in IC50 (Table 13, V19263, genotype 77I): 0.6 fold | Fold change in IC50 (Table 13, V20160, genotype WT): 1.0 fold | Fold change in IC50 (Table 13, V021667, genotype 10I): 1.1 fold | Fold change in IC50 (Table 13, V030496, genotype 10I + 77I): 0.5 fold | Fold change in IC50 (Table 13, V048868, genotype 10I + 54L + 71V + 77I + 90M): 4.1 fold | Fold change in IC50 (Table 13, V048874, genotype 10I + 33F + 54L + 71V + 77I + 90M): 32.1 fold | Fold change in IC50 (Table 13, V048875, genotype 10I + 33F + 54L + 71V + 77I + 90M): 24.6 fold | Fold change in IC50 (Table 13, V048877, genotype 10I + 33F + 77I + 90M): 7.9 fold | Fold change in IC50 (Table 13, V048880, genotype 10I + 33F + 77I + 90M): 3.8 fold | Fold change in IC50 (Table 13, V052940, genotype 71V): 0.3 fold | Fold change in IC50 (Table 13, V052942, genotype 10I + 71V): 0.5 fold | Fold change in IC50 (Table 13, V052943, genotype 10I + 90M): 0.4 fold | Fold change in IC50 (Table 13, V052944, genotype 10I + 90M): 0.7 fold | Fold change in IC50 (Table 13, V052945, genotype 77I + 90M): 0.3 fold | Fold change in IC50 (Table 13, V052946, genotype 71V + 90M): 0.5 fold | Fold change in IC50 (Table 13, V052947, genotype 10I + 77I + 90M): 1.2 fold | Fold change in IC50 (Table 13, V052948, genotype 10I + 71V + 90M): 2.0 fold | Fold change in IC50 (Table 13, V052949, genotype 10I + 71V + 77I + 90M): 0.6 fold | Fold change in IC50 (Table 13, V052950, genotype 33F): 0.7 fold | Fold change in IC50 (Table 13, V052951, genotype 33F + 77I): 0.3 fold | Fold change in IC50 (Table 13, V052953, genotype 10I + 33F + 77I): 1.5 fold | Fold change in IC50 (Table 13, V052954, genotype 33F + 77I + 90M): 2.1 fold | Fold change in IC50 (Table 13, V052955, genotype 33F + 71V + 90M): 2.7 fold | Fold change in IC50 (Table 13, V052968, genotype 10L/I + 33F/L + 54L + 77I): 2.9 fold | Fold change in IC50 (Table 13, V052969, genotype 10I + 33F + 54L + 90M): 10.4 fold | Fold change in IC50 (Table 13, V052970, genotype 54L): 0.8 fold | Fold change in IC50 (Table 13, V052971, genotype 10I + 54L): 2.6 fold | Fold change in IC50 (Table 13, V052972, genotype 54L + 77I): 1.1 fold | Fold change in IC50 (Table 13, V052973, genotype 10I + 54L + 77I): 2.1 fold | Fold change in IC50 (Table 13, V052974, genotype 10I + 54L + 90M): 1.2 fold | Fold change in IC50 (Table 13, V052975, genotype 10I + 54L + 71V + 90M): 6.2 fold | Fold change in IC50 (Table 13, V052976, genotype 10I + 54L + 71V + 77I + 90M): 2.0 fold | Fold change in IC50 (Table 13, V053832, genotype 10I + 33F): 0.6 fold | Fold change in IC50 (Table 13, V053854, genotype 54L + 71V): 5.0 fold | Fold change in IC50 (Virco ID 214846, genotype 10I + 33F + 54V + 71V + 77I + 90M, vs mean IC50 of wild type laboratory HIV strain): 4.2 fold | Fold change in IC50 (Virco ID V021667, genotype 10I, vs mean IC50 of wild type laboratory HIV strain): 1.1 fold | Fold change in IC50 (Virco ID V030496, genotype 10I + 77I, vs mean IC50 of wild type laboratory HIV strain): 0.5 fold | Fold change in IC50 (Virco ID V048876, genotype 33F + 54V + 77I + 90M, vs mean IC50 of wild type laboratory HIV strain): 1.1 fold | Fold change in IC50 (Virco ID V048877, genotype 10I + 33F + 77I + 90M, vs mean IC50 of wild type laboratory HIV strain): 7.9 fold | Fold change in IC50 (Virco ID V048880, genotype 10I + 33F + 77I + 90M, vs mean IC50 of wild type laboratory HIV strain): 3.8 fold | Fold change in IC50 (Virco ID V052940, genotype 71V, vs mean IC50 of wild type laboratory HIV strain): 0.3 fold | Fold change in IC50 (Virco ID V052942, genotype 10I + 71V, vs mean IC50 of wild type laboratory HIV strain): 0.5 fold | Fold change in IC50 (Virco ID V052943, genotype 10I + 90M, vs mean IC50 of wild type laboratory HIV strain): 0.4 fold | Fold change in IC50 (Virco ID V052944, genotype 10I + 90M, vs mean IC50 of wild type laboratory HIV strain): 0.7 fold | Fold change in IC50 (Virco ID V052946, genotype 71V + 90M, vs mean IC50 of wild type laboratory HIV strain): 0.5 fold | Fold change in IC50 (Virco ID V052947, genotype 10I + 77I + 90M, vs mean IC50 of wild type laboratory HIV strain): 1.2 fold | Fold change in IC50 (Virco ID V052948, genotype 10I + 71V + 90M, vs mean IC50 of wild type laboratory HIV strain): 2.0 fold | Fold change in IC50 (Virco ID V052949, genotype 10I + 71V + 77I + 90M, vs mean IC50 of wild type laboratory HIV strain): 0.6 fold | Fold change in IC50 (Virco ID V052950, genotype 33F, vs mean IC50 of wild type laboratory HIV strain): 0.7 fold | Fold change in IC50 (Virco ID V052951, genotype 33F + 77I, vs mean IC50 of wild type laboratory HIV strain): 0.3 fold | Fold change in IC50 (Virco ID V052953, genotype 10I + 33F + 77I, vs mean IC50 of wild type laboratory HIV strain): 1.5 fold | Fold change in IC50 (Virco ID V052954, genotype 33F + 77I + 90M, vs mean IC50 of wild type laboratory HIV strain): 2.1 fold | Fold change in IC50 (Virco ID V052955, genotype 33F + 71V + 90M, vs mean IC50 of wild type laboratory HIV strain): 2.7 fold | Fold change in IC50 (Virco ID V052957, genotype 10I + 33F + 54V + 90M, vs mean IC50 of wild type laboratory HIV strain): 5.2 fold | Fold change in IC50 (Virco ID V052958, genotype 10I + 33F + 54V + 77I + 90M, vs mean IC50 of wild type laboratory HIV strain): 7.8 fold | Fold change in IC50 (Virco ID V052959, genotype 10I + 33F + 54V + 77I + 90M, vs mean IC50 of wild type laboratory HIV strain): 7.0 fold | Fold change in IC50 (Virco ID V052960, genotype 10I + 33F + 54V + 71V + 90M, vs mean IC50 of wild type laboratory HIV strain): 6.4 fold | Fold change in IC50 (Virco ID V052961, genotype 54V, vs mean IC50 of wild type laboratory HIV strain): 0.5 fold | Fold change in IC50 (Virco ID V052962, genotype 10I + 54V, vs mean IC50 of wild type laboratory HIV strain): 0.5 fold | Fold change in IC50 (Virco ID V052963, genotype 54V + 77I + 90M, vs mean IC50 of wild type laboratory HIV strain): 0.5 fold | Fold change in IC50 (Virco ID V052964, genotype 54V + 71V + 90M, vs mean IC50 of wild type laboratory HIV strain): 0.3 fold | Fold change in IC50 (Virco ID V052965, genotype 10I + 54V + 77I + 90M, vs mean IC50 of wild type laboratory HIV strain): 0.7 fold | Fold change in IC50 (Virco ID V052966, genotype 10I + 54V + 71V + 90M, vs mean IC50 of wild type laboratory HIV strain): 1.5 fold | Fold change in IC50 (Virco ID V052967, genotype 10I + 54V + 71V + 77I + 90M, vs mean IC50 of wild type laboratory HIV strain): 0.4 fold | Fold change in IC50 (Virco ID V053358, genotype 33F + 54V + 77I + 90M, vs mean IC50 of wild type laboratory HIV strain): 1.0 fold | Fold change in IC50 (Virco ID V053831, genotype 33F + 54V, vs mean IC50 of wild type laboratory HIV strain): 7.5 fold | Fold change in IC50 (Virco ID V053832, genotype 10I + 33F, vs mean IC50 of wild type laboratory HIV strain): 0.6 fold
